Marks after values point to notes of the source that are not given here.
Legend:
[1] = tested on: succinic semi-aldehyde dehydrogenase (SSA DH); test: In vitro inactivation of succinic semi-aldehyde dehydrogenase; type: biochemical
Experimental: (§1) To test whether the protective effect of DETC-MeSO in hyperbaric O2-induced convulsions in mice could be due to inhibition of succinic semi-aldehyde dehydrogenase (SSA DH), mechanistically related to ALDH2, the sensitivity of SSA DH to inactivation by DETC-MeSO was determined. Potentially, inhibition of SSA DH in brain could offset the build up of ammonia known to occur and produce more GABA. In vitro both ALDH2 and SSA DH are inactivated by DETC-MeSO at 47 M-1 s-1 and 300 M-1 s-1, respectively.

mouse liver low Km ALDH = molecular target: T1, mouse liver low Km ALDH (Mus musculus, UniProt P47738); test: In vivo inhibition of mouse liver aldehyde dehydrogenase
T1 construct: Liver aldehyde dehydrogenase was extracted and assayed as previously described; from tissue; host or cells: liver of treated mice
T1 sequence (P47738 20-519): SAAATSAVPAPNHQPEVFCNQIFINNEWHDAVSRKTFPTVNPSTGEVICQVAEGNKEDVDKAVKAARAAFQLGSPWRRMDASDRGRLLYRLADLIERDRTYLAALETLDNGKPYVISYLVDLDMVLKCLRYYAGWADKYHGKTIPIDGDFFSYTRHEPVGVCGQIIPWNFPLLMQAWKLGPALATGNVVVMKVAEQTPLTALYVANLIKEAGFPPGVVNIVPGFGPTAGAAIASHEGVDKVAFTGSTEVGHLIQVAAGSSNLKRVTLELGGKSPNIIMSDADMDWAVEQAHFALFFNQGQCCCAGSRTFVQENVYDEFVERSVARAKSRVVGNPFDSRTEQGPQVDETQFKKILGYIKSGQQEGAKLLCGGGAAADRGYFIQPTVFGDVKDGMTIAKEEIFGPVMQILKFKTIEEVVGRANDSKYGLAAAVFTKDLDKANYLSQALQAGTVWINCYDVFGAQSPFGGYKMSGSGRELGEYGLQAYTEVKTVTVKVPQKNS
Experimental: Reagents—DETC-MeSO was synthesized by the method of Hart and Faiman (B. W. Hart et al., Biochem. Pharmacol.), 43, 403-406 (1992). Carbamoylated glutathione, S-(N,N-diethylcarbamoyl)glutathione (DETC-GS), was prepared essentially as described by Jin et al. (L. Jin, supra). The structures and purity of DETC-MeSO and DETC-GS were confirmed by 300 MHz NMR and FAB-tandem mass spectrometry. A QE300 NMR spectrometer (General Electric, Fremont, Calif.) and Autospec-Q Tandem Hybrid mass spectrometer (Fiscons/VG Analytical Limited, Manchester, England) were employed for these analyses. Liver aldehyde dehydrogenase was extracted and assayed as previously described (B. W. Hart et al., supra). MetSOX monosodium L-glutamate, glycine, glutathione, and NMDA were purchased from Sigma Chemical Company (St. Louis, Mo.). L-[3-^3H]Glutamate (46 Ci/mmol) was obtained from Amerisham Life Science (Buckinghamshire, England).

ALDH2 = test: In vitro inactivation of aldehyde dehydrogenase; type: biochemical
Experimental: as §1

[2] = tested on: oxygen-induced seizures (5 ATA O2); test: Hyperbaric oxygen-induced seizures in mice; type: in vivo
Experimental: (§2) Animals—Male Swiss Webster mice (20-30 g) or male Sprague-Dawley rats (250-300 g) were used. All that employed animals were conducted in strict compliance with the NIH guidelines on animal use and institutional regulations concerning animal experimentation. Animals were exposed to hyperbaric oxygen in a specify designed press chamber as previously described (M. D. Faiman et al., Biochem. Pharmacol., 20, 3049-3067 (1971); M. D. Faiman et al. Aerosp. Med.,45, 29032.(1974)). The time to first clonic-tonic seizure after brining animals to a final pressure of five atmospheres of 100% oxygen or after intraperitoneal injection of convulsants was noted by. criteria outlined previously (M. D. Faiman et al. (1971), supra M. D. Faiman et al. (1974), supra). Unless otherwise specified, the ability of DETC-MeSO to prevent seizures was tested by intraperitoneal injection of 5.2 mg/kg of DETC-MeSO 1-2 hours prior to bringing the animal to a final pressure of 5 atmospheres of 100% oxygen or intraperitoneal injection of N-methyl-D-asparate (NMA) (125 mg/kg) r L-methionine sulfoximine (MetSOX) (250 mg/kg). Evaluation of the statistics for whole animal experiments or for changes in brain glutamate binding after administration of DETC-MeSO was conducted by use of the program GraphPAD InStat from Graph PAD Software (San Diego, Calif.).

NMDA-induced seizures = NMDA-induced seizures in mice; type: in vivo
Experimental: as §2

brain or liver SSA DH = molecular target: T2, brain or liver SSA DH (Mus musculus, UniProt Q8BWF0); test: In vivo effect on brain or liver SSA DH levels; settings: up to 100 mg/kg i.p.
T2 construct: with no effect on the levels of brain or liver SSA DH; from tissue; host or cells: brain or liver of treated animals
T2 sequence (Q8BWF0 36-523): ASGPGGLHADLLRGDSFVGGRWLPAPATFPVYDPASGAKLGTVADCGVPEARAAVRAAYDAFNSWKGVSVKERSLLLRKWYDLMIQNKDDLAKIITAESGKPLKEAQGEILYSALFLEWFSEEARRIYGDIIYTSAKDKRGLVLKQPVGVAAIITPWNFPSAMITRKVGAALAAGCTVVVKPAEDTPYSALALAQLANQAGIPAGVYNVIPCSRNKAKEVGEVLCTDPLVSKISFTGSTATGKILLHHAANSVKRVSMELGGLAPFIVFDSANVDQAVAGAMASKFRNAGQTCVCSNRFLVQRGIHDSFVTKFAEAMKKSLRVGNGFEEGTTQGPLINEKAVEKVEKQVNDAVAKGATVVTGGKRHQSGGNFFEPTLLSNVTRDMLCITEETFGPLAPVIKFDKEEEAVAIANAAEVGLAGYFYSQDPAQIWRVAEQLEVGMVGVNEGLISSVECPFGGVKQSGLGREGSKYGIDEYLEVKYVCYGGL

## CCN(CC)C(=O)[S+](C)[O-] (stereo not drawn) [DETC-MeSO, S-Methyl-N,N-Diethylthiolcarbamate Sulfoxide]
[1]
  inactivation rate of SSA DH: 300 M⁻¹ s⁻¹
Mouse liver low Km ALDH; 5.2 mg/kg i.p. in mice, in 1 hour
  inactivation of ALDH: 80%
Mouse liver low Km ALDH; 5.2 mg/kg i.p. in mice, worked out from inactivation rate
  effective concentration at its site of action in vivo: about 11 μM
Mouse liver low Km ALDH; mouse, ip, 2.6 mg/kg i.p., read-out: inhibition of mouse liver enzyme (ALDH)
  inhibition at 2.6 mg/kg: 84%
Mouse liver low Km ALDH; mouse, 30 μmol/kg intravenous, mice
  inhibition at 30 µmol/kg: 44.9 ± 1%
ALDH2; in vitro
  inactivation rate of ALDH2: 47 M⁻¹ s⁻¹
ALDH2; under physiological conditions
  rate for enzyme (ALDH) inactivation: 40 M⁻¹ s⁻¹
[2]; 5.2 mg/kg i.p. 2 hours before 5 atmospheres of 100% oxygen, mice
  effect on oxygen-induced seizures: prevented the seizures
[2]; 5 ATA 100% O2, mice
  number of animals that exhibited the effect/total number of animals in the group: (0/5)^a
[2]; 5 ATA 100% O2, mice, 5.2 mg/kg i.p. prior, observation one hour
  mean time to seizure: >60^a min
NMDA-induced seizures; NMDA 125 mg/kg i.p.
  effect on seizures that result from NMDA administration: prevented seizures
NMDA-induced seizures; NMDA 125 mg/kg, 5.2 mg/kg i.p. 1-2 hours prior
  number of animals that exhibited the effect/total number of animals in the group: (0/6)^a
NMDA-induced seizures; NMDA 125 mg/kg, 5.2 mg/kg i.p. 1-2 hours prior, observation 2 hours
  mean time to seizure: >120^a min
Brain or liver SSA DH
  effect on the levels of brain or liver SSA DH: no effect

— US20050037975A1, “Method for treatment of glutamate related disorders” (priority 1997, published 2005)
